Several values for one entry are separate records, joined by “and”; a condition that tells them apart may be missing. Identical values can stand only once. Like-named read-outs stand apart in the source and are kept apart here.
How the values were obtained:
[1] = test system: Geobacter sulfurreducens PCA; assay: Bioreactor Hg^0 production and growth of Geobacter sulfurreducens PCA supplied with Hg^II; assay type: cell-based; details: for Cumulative Hg(0) production / Final O.D. 600 nm: live cells, 28 C, Hg 250 pM
From the text: Geobacter sulfurreducens PCA cells were revived from cryostock and grown in defined medium (herein referred to as GSMM) according to previous work (Schaefer, J. K.; Morel, F. M. M., High methylation rates of mercury bound to cysteine by Geobacter sulfurreducens. Nature Geoscience 2009, 2, (2), 123-126) with the following modification: resazurin, the color indicator used to monitor anoxia, was removed to avoid issues with abiotic Hg reduction given that resazurin is a reducing agent. Cells were grown chemotrophically in the dark at 28° C. Cells took between 10 to 12 days to re-initiate growth, as such, cultures were maintained by re-inoculating fresh GSMM every 4 days with a 10% inoculum in a final volume of 10 mL. Upon reaching late exponential phase, a 10% inoculum was used to start cultures in GSMM with a final volume of 75 mL destined for the bioreactor. Upon reaching late exponential phase a 10% inoculum was used to inoculate the bioreactor where cells were supplied with Hg^II in 560 mL of PYEΔSO4^2− or GSMM medium (see Table 1).

[2] = test system: Heliobacterium modesticaldum Ice1; assay: microbe, parasite or virus in culture
Method: The following strains were used in these studies: Heliobacterium modesticaldum Ice1, Clostridium acetobutylicum ATCC 824, Geobacter sulfurreducens PCA and Escherichia coli K-12. For phototrophic growth of H. modesticaldum, cells were supplied with constant illumination at 80 μmolphoton·m^−2·s^−1 at 50° C. whereas chemotrophic cells were grown at the same temperature in the dark in line with previous work.^32 C. acetobutylicum and E. coli were grown at 37° C. whereas G. sulfurreducens was grown at 28° C., all chemotrophically in the dark.
[…] Hg growth assays were carried out under the same phototrophic and chemotrophic conditions mentioned above.
Stock solutions used in cell cultures were all prepared following anaerobic techniques. […] For DMSO controls, the DMSO solution was bubbled with N2 prior to being added to the bioreactor; final concentration of DMSO in the reactor was 2.8 mM. Sodium nitrite stocks were prepared to a final concentration of 10 mM in ultra pure miliQ, filter-sterilized, sparged with N2 and stored at 4° C. in the dark; final concentration of NO2^− in the reactor was 10 μM. For experiments where HCO3^− was supplied, a stock solution of 1 M was prepared by dissolving NaHCO3 in ultra pure MiliQ and autoclaving for 30 minutes at 121° C. under 80% N2/20% CO2 atmosphere prior to use. Fumarate stock solutions were prepared at a final concentration of 40 mM in ultra pure miliQ, filter sterilized (0.2 μm pore size), bubbled with N2, sealed and crimped shut in sterile serum bottles prior to use. All equipment used in the anaerobic glove box was conditioned for at least 48 hours prior to use.
For Heliobacterium modesticaldum Ice1, new cultures were started from a cryostock for every bioreactor experiment. Cells were revived in DSMZ medium 655 (herein referred to as PYE) previously used to isolate H. modesticaldum (Kimble, L. K.; Mandelco, L.; Woese, C. R.; Madigan, M. T., Heliobacterium modesticaldum, sp. nov., a thermophilic heliobacterium of hot springs and volcanic soils. Archives of Microbiology 1995, 163, (4), 259-267). Cultures started from cryostock were grown phototrophically in PYE with an incandescent light source and constant illumination of 80 μmol photon m^−2s^−1 at 50° C. in line with previous work (Kimble, above) until reaching early stationary phase. Afterwards, a 10% inoculum was used to re-inoculate 10 mL of fresh PYE and cells were grown phototrophically (with the same light intensity) or chemotrophically (in the dark) at 50° C. These cultures were used to establish finely resolved growth curves and Hg growth assays (see FIGS. 1 and 2).
For experiments testing the effect of carbon source on Hg^0 production some modifications to the initial PYE medium growth protocol were made. Phototrophic H. modesticaldum cells were grown with pyruvate, acetate, acetate+HCO3^− and/or yeast extract alone as a carbon source. Cells were grown until late exponential phase before being subsampled to supply a 10% inoculum for cultures with a final volume 75 mL destined for the bioreactor and grown under the same conditions (see Table 1). […] Upon reaching late exponential phase, cells were inoculated into the bioreactor as a 10% inoculum in a final volume of 560 mL of media with the desired carbon source treatment.
Please refer to the methods section of Gregoire and Poulain (2016)^21 (which is herein incorporated by reference in its entirety) for a schematic of the bioreactor setup employed and the Hg^0 sampling methodology. Note that phototrophic bioreactor experiments were carried out using a 200 W incandescent clear light bulb at a constant illumination at 20 μmolphoton·m^−2·s^−1.

[3] = test system: Heliobacterium modesticaldum Ice1; assay: Hg growth assays with Heliobacterium modesticaldum Ice1; assay type: cell-based; details: 500 nM HgCl2 supplied as two doses of 250 nM 24 hours apart, phototrophic and chemotrophic cells in PYE
Method: One-way ANOVAs were performed for phototrophic and chemotrophic Hg exposure assays using R statistical software (R Core Team R: A Language and Environment for Statistical Computing, R Foundation for Statistical Computing: 2014). In the event of detecting a significant difference, assumptions of constant variance and normality were verified with the Brusch-Pagan test and the Shapiro-Wilks test, respectively, with the significance thresholds set to p=0.05 for each test. Significant differences were then identified using the Tukey HSD test. The sample size employed for growth assays was n=3 per treatment. All assumptions were passed for significant differences and these values are reported in the Brief Description of the Drawings (see FIG. 4). A non-linear regression model was fit to the cumulative Hg^0 production data as a function of pyruvate concentration using Sigmaplot software. In this instance, a natural logarithmic function was fit to a data set of n=8. Given the significant fit, assumptions of constant variance and normality were verified with the Sigmaplot software with the significant threshold set to p=0.05 for each test.

[4] = test system: Clostridium acetobutylicum ATCC 824; assay: Bioreactor Hg^0 production and growth of Clostridium acetobutylicum ATCC 824 supplied with Hg^II; assay type: cell-based; details: chemotrophy
Method: For Clostridium acetobutylicum ATCC 824, new cultures were started for every bioreactor experiment. Cells were revived in DSMZ medium 104b (herein referred to as PYX). Cells were grown in the dark at 37° C. until reaching early stationary phase after which point they were rotated as a 1% inoculum in a final volume of 10 mL into fresh PYX. Cells were grown to late exponential phase, and re-inoculated as a 1% inoculum in a final volume of 75 mL of PYX in cultures destined for the bioreactor. Experiments were performed in PYE where all SO4^2− salts were substituted with chloride salts (PYEΔSO4^2−) to avoid competition between Hg^II reduction and SO4^2− reduction. Cells were also supplied with Hg^II in DSMZ medium 104b to account for the effect of suboptimal growth medium (see Table 1 and Table 3). […] The initial volume of medium in the bioreactor was corrected to ensure that identical volumes were maintained throughout all experiments.

[5] = chemotrophy, pyruvate 20 mM + YE 4 g L-1, fumarate 40 mM
[6] = live cells, phototrophy, 50 C, acetate 30 mM + YE 4 g L-1, HCO3- 10 mM, Hg 250 pM
[7] = live cells, 37 C, pyruvate 20 mM + YE 4 g L-1 (PYEΔSO4^2-), NTZ 10 μM + DMSO 2.8 mM, Hg 250 pM
[8] = chemotrophy, pyruvate 20 mM + YE 4 g L-1 (PYEΔSO4^2-), NTZ 10 μM + DMSO 2.8 mM

Compound: O=C(O)/C=C/C(=O)O [Fumarate]
- Cell growth ([1]; in the presence of fumarate): able to grow
- Cumulative Hg(0) production ([1]; chemotrophy, acetate 10 mM (optimal growth medium), fumarate 40 mM): 19.81 pmol and 21.48 pmol
- Cumulative Hg(0) production [1, 5]: 6.65 pmol
- Final O.D. 600 nm [1, 5]: 0.185
- Decrease of Hg^0 production in the presence of fumarate ([1]; with vs without fumarate as terminal electron acceptor, pyruvate + YE): 50%

Compound: O=C([O-])O.[Na+] [HCO3—, NaHCO3]
- Cumulative Hg(0) production [2, 6]: 43.31 pmol and 42.50 pmol
- Final O.D. 600 nm [2, 6]: 0.02 and 0.039

Compound: [Cl][Hg][Cl] [Hg^II, HgCl2]
- Cell health at increased mercury concentration ([2]; 2 nM Hg, phototrophically grown cells, 48 hours): unaffected
- Physiological advantage / growth (rate, yield) with sublethal Hg [3]: No physiological advantage was observed except for a small increase in the yield of phototrophically grown cells

Compound: O=N[O-].[Na+] [NO2, Sodium nitrite]
- Cumulative Hg(0) production [2]: 53.36 ± 0.13 pmol and 53.47 pmol and 53.66 pmol
- Final O.D. 600 nm [2]: 0.034 and 0.023
- Increase in the amount of Hg^0 produced [2]: 30%

Compound: CC(=O)Oc1ccccc1C(=O)Nc1ncc([N+](=O)[O-])s1 [NTZ, nitazoxanide]
- inhibition at 10 µM ([2]; Heliomicrobium modesticaldum, ICE1, read-out: Inhibition (decrease) of chemotrophic Hg^0 production compared to controls): 88%
- Final O.D. 600 nm ([2]; live cells, chemotrophy (dark), 50 C, pyruvate 20 mM + YE 4 g L-1, NTZ 10 μM + DMSO 2.8 mM, Hg 250 pM): 0.065 and 0.057
- Cell growth ([2]; phototrophic cells, NTZ 10 μM): did not grow
- Lag: peak of Hg^0 production occurring later than previously observed ([2]; phototrophic cells, NTZ 10 μM): 11 h
- Decrease of Hg^0 production in the presence of NTZ ([4]; NTZ 10 μM vs DMSO control): 98%
- Cumulative Hg(0) production [4, 7]: 1.20 pmol
- Final O.D. 600 nm [4, 7]: 0.146
- Decrease of Hg^0 production in the presence of NTZ ([1]; chemotrophy, NTZ 10 μM vs DMSO control): 62%
- Cumulative Hg(0) production [1, 8]: 3.19 pmol
- Final O.D. 600 nm [1, 8]: 0.041

From patent publication US10759683B2, “Methods for removing mercury contaminant from aqueous solutions, and bioreactors therefor” (priority 2018, dated 2020)
